Measurements as given in PMC8198056 (Molecules, 2021).
Numbered stars: 1 amine (or outer) side, 2 acyl side, 3 side chain; on linkers, the order of the positions; unused ones are H or OH. Square brackets hold non-standard residues; d marks the D form. Peptide text beside a SMILES is read from it. X1 = O=C1[C@@H](N[*:1])Cc2ccccc2CN1CCC(=O)[*:2]; Dmt = Cc1cc(O)cc(C)c1C[C@H](N)C(=O)O

Legend:
human MOR [1] = target: T1, human MOR (Homo sapiens, UniProt P35372); assay: Competitive radioligand binding assay ([3H]DAMGO), CHO-hMOR membranes; conditions: CHO-hOR membranes, mean ± SEM, read-out: Receptor Binding Ki
T1 construct: expressed in transfected cells; host or cells: CHO (CHO-hMOR; gift of Lawrence Toll, SRI International)

human DOR [2] = target: T2, human DOR (Homo sapiens, UniProt P41143); assay: Competitive radioligand binding assay ([3H]diprenorphine), CHO-hDOR membranes; conditions: CHO-hOR membranes, mean ± SEM, read-out: Receptor Binding Ki
T2 construct: expressed in transfected cells; host or cells: CHO (CHO-hDOR; gift of Lawrence Toll, SRI International)

human KOR [3] = target: T3, human KOR (Homo sapiens, UniProt P41145); assay: Competitive radioligand binding assay ([3H]U69,593), CHO-hKOR membranes; conditions: [3H]U69,593, CHO-hOR membranes, mean ± SEM, read-out: Receptor Binding Ki
T3 construct: expressed in transfected cells; host or cells: CHO (CHO-hKOR; gift of Lawrence Toll, SRI International)

human MOR [4] = target: T1, human MOR; assay: [35S]GTPγS binding assay, CHO-hMOR membranes; assay type: biochemical
human DOR [5] = target: T2, human DOR; assay: [35S]GTPγS binding assay, CHO-hDOR membranes; assay type: biochemical
human KOR [6] = target: T3, human KOR; assay: [35S]GTPγS binding assay, CHO-hKOR membranes; assay type: biochemical
human NOP receptor = target: T4, human NOP receptor (Homo sapiens, UniProt P41146); assay: [35S]GTPγS binding assay, CHO-hNOP membranes; assay type: biochemical; conditions: relative to maximum effect of nociceptin (100%)
T4 construct: expressed in transfected cells; host or cells: CHO (CHO-hNOP; gift of Lawrence Toll, SRI International)

mice [7] = assay: CFA-induced chronic inflammatory pain, thermal sensitivity (Hargreaves test); assay type: in vivo, mouse
mice [8] = assay: CFA-induced chronic inflammatory pain, mechanical sensitivity (von Frey test); assay type: in vivo, mouse; conditions: 1.22 µmol/kg s.c.
[9] = design: method as in PMID 27035422; conditions: cited from earlier work
rats [10] = conditions: acute i.t. administration in rats; cited from earlier work
rats [11] = test system: rats; design: method as in PMID 27035422, PMID 28135212; conditions: i.v. at equianalgesic doses to rats; cited from earlier work
mice [12] = assay: Conditioned place preference (CPP); conditions: 1.22 and 2.44 µmol/kg s.c., 4-day conditioning
mice [13] = assay: Open-field test (spontaneous locomotor activity)
mice [14] = assay: Formalin test (formalin-induced acute inflammatory pain); conditions: for %Antinociceptive effect Phase I: Phase I 0-5 min; for %Antinociceptive effect Phase II: Phase II 15-60 min

CC[C@H](C)[C@H](NC(=O)[C@H](CCCNC(=N)N)NC(=O)[C@H](Cc1ccc(O)cc1)NC(=O)[C@H](Cc1ccc(O)cc1)NC(=O)[C@H](CCCNC(=N)N)NC(=O)CCN1Cc2ccccc2C[C@H](NC(=O)[C@@H](CCCNC(=N)N)NC(=O)[C@@H](N)Cc2c(C)cc(O)cc2C)C1=O)C(=O)N[C@@H](CCCCN)C(N)=O [KGNOP1, H-Dmt-D-Arg-Aba-β-Ala-Arg-Tyr-Tyr-Arg-Ile-Lys-NH2] (H-[Dmt][dR][X1]RYYRIK-NH2)
Ki (human MOR [1]): 0.42 ± 0.08 nM
Ki (human DOR [2]): 12.2 ± 3.5 nM
Ki (human KOR [3]): 13.4 ± 4.3 nM
EC50 (human MOR [4]): 2.5 ± 0.81 nM
Emax (human MOR [4]; relative to maximum effect of DAMGO (100%)): 92 ± 4%
EC50 (human DOR [5]): 51.6 ± 17.8 nM
Emax (human DOR [5]; relative to maximum effect of DPDPE (100%)): 106 ± 3%
EC50 (human KOR [6]): 112 ± 32 nM
Emax (human KOR [6]; relative to maximum effect of U69,593 (100%)): 37 ± 3%
Emax (human NOP receptor): 99 ± 8%
Time span of significant inhibition of thermal hyperalgesia vs saline (mice [7]; 0.49 µmol/kg s.c.): 30 to 240 min
% reversal of thermal sensitivity (mice [7]; 0.49 µmol/kg s.c., 30 min): 23.5%
% reversal of thermal sensitivity (mice [7]; 0.49 µmol/kg s.c., 1 h): 38.1%
% reversal of thermal sensitivity (mice [7]; 0.49 µmol/kg s.c., 2 h): 59.8%
% reversal of thermal sensitivity (mice [7]; 0.49 µmol/kg s.c., 3 h): 40.2%
% reversal of thermal sensitivity (mice [7]; 0.49 µmol/kg s.c., 4 h): 25.4%
% reversal of thermal sensitivity (mice [7]; 0.49 µmol/kg s.c., 5 h): 15.7%
% reversal of thermal sensitivity (mice [7]; 0.49 µmol/kg s.c., 6 h): 9.3%
% reversal of thermal sensitivity (mice [7]; 0.49 µmol/kg s.c., 7 h): -1.46%
% reversal of thermal sensitivity (mice [7]; 0.49 µmol/kg s.c., 8 h): 6.12%
% reversal of thermal sensitivity (mice [7]; 0.49 µmol/kg s.c., 24 h): -3.79%
Time of maximum efficacy, Hargreaves test (mice [7]; 1.22 µmol/kg s.c.): two hours
Time span of significant inhibition of thermal hyperalgesia vs saline (mice [7]; 1.22 µmol/kg s.c.): 30 to 360 min
% reversal of thermal sensitivity (mice [7]; 1.22 µmol/kg s.c., 30 min): 31.9%
% reversal of thermal sensitivity (mice [7]; 1.22 µmol/kg s.c., 1 h): 54.4%
% reversal of thermal sensitivity (mice [7]; 1.22 µmol/kg s.c., 2 h): 98.6%
% reversal of thermal sensitivity (mice [7]; 1.22 µmol/kg s.c., 3 h): 78.6%
% reversal of thermal sensitivity (mice [7]; 1.22 µmol/kg s.c., 4 h): 58.2%
% reversal of thermal sensitivity (mice [7]; 1.22 µmol/kg s.c., 5 h): 26.0%
% reversal of thermal sensitivity (mice [7]; 1.22 µmol/kg s.c., 6 h): 26.7%
% reversal of thermal sensitivity (mice [7]; 1.22 µmol/kg s.c., 7 h): 10.2%
% reversal of thermal sensitivity (mice [7]; 1.22 µmol/kg s.c., 8 h): 9.15%
% reversal of thermal sensitivity (mice [7]; 1.22 µmol/kg s.c., 24 h): 6.72%
Duration of reversal of CFA-induced thermal hyperalgesia (mice [7]; s.c.): up to 6 h
Time points of significant effect on mechanical stimulation vs saline (mice [8]): one hour
% reversal of mechanical sensitivity (mice [8]; 30 min): -6.71%
% reversal of mechanical sensitivity (mice [8]; 1 h): 65.4%
% reversal of mechanical sensitivity (mice [8]; 2 h): 19.1%
% reversal of mechanical sensitivity (mice [8]; 3 h): -8.73%
% reversal of mechanical sensitivity (mice [8]; 4 h): 21.1%
% reversal of mechanical sensitivity (mice [8]; 5 h): -0.50%
% reversal of mechanical sensitivity (mice [8]; 6 h): -12.9%
% reversal of mechanical sensitivity (mice [8]; 7 h): -8.30%
% reversal of mechanical sensitivity (mice [8]; 8 h): -2.42%
% reversal of mechanical sensitivity (mice [8]; 24 h): -8.66%
Half-life time t1/2 in human plasma [9]: 586 min
Effect on evoked locomotor activity in the rotarod test (rats [10]): lack of KGNOP1′s effect on the evoked locomotor activity
Respiratory depression in contrast to morphine (rats [11]): significantly less respiratory depression
CPP response vs saline (mice [12]): no significant preference at any tested dose
Spontaneous locomotor activity (distance traveled) vs saline (mice [13]; 1.22 µmol/kg s.c. daily for 4 days): no significant alteration in locomotion
Spontaneous locomotor activity (distance traveled) vs saline (mice [13]; 2.44 µmol/kg s.c., only at day 1): significant decrease in locomotion
%Antinociceptive effect Phase I (mice [14]; 0.12 µmol/kg s.c.): 33.9 ± 3.8%
%Antinociceptive effect Phase II (mice [14]; 0.12 µmol/kg s.c.): 2.3 ± 11.1%
%Antinociceptive effect Phase I (mice [14]; 0.49 µmol/kg s.c.): 33.7 ± 9.3%
%Antinociceptive effect Phase II (mice [14]; 0.49 µmol/kg s.c.): 51.8 ± 9.7%
Pain response counted between 15 and 60 min (mice [14]; 1.22 µmol/kg s.c.): almost complete inhibition of the pain response
%Antinociceptive effect Phase I (mice [14]; 1.22 µmol/kg s.c.): 55.6 ± 7.3%
%Antinociceptive effect Phase II (mice [14]; 1.22 µmol/kg s.c.): 71.4 ± 6.8%
Antinociceptive effect after pre-treatment with SB-612111 (mice [14]; KGNOP1 1.22 µmol/kg s.c., SB-612111 6.6 µmol/kg s.c., -30 min, Phase I and II): significantly reversed the antinociceptive response
Antinociceptive effect after pre-treatment with naltrexone (mice [14]; KGNOP1 1.22 µmol/kg s.c., naltrexone 2.6 µmol/kg s.c., -15 min, Phase I and II): significant antagonism of the antinociceptive effect
Antinociceptive ED50 (95% CL), Phase I (mice [14]; s.c., acute nociceptive Phase I (0-5 min)): 1.17 µmol/kg
Antinociceptive ED50 (95% CL), Phase II (mice [14]; s.c., inflammatory Phase II (15-60 min)): 0.55 µmol/kg
